These results are taken from patent publication US20260159481A1, “INDOLE DERIVATIVE WITH SUBSTITUENT AND PHARMACEUTICAL USE” (MITOIMMUNE THERAPEUTICS INC., priority 2023, published 2026).

Structures are written as SMILES.

This test concerns cardiac cells (H9C2). Kind of test: Protective effect against t-BHP-induced cell death in cardiac cells (LDH release). It is filed as cell-based. The following applies: Rattus norvegicus, t-BHP 400 PM, 2 hours, read-out: EC50, protective effect against cell death due to t-BHP induction. The procedure:
To confirm a protective effect on cardiac cells, H9C2 cells were seeded at 1.5×10^4 cells/well in a 96-well plate and cultured for 24 hours. The example compounds were diluted to have the final concentration of 0.001, 0.01, 0.03, 0.1, 0.3, 1, 3, 10, and 30 PM, respectively, and then added to different wells, and the resulting cells were cultured for 15 to 20 minutes. Tert-butyl hydroperoxide (t-BHP) was treated to have the final concentration of 400 PM, and the resulting cells were cultured for 2 hours. To confirm the cell death protection effect of each compound, the degree of extracellular secretion of lactate dehydrogenase (LDH) was measured using a cytotoxicity LDH assay kit [Dojindo; CK12]. Briefly, after 2 hours of t-BHP treatment on the cells, 70 μL of the supernatant was taken from the 96-well plate where the cells were cultured and transferred to a new 96-well plate. The assay buffer included in the kit was added at 70 μL/well (equal to that of the sample) and the plate was covered with foil to block light and allowed to react for 15 minutes at room temperature. While observing a color change of each sample, 35 μL/well of a stop solution was added, an absorbance at 490 nm was measured using an iD3 spectrophotometer, and an EC50 value was calculated.

Turning to `CCN(CC)C(=O)c1cc(NC2CCCC2)c2[nH]c(-c3ccccc3)cc2c1` [Example 1, 7-(cyclopentylamino)-N,N-diethyl-2-phenyl-1H-indol-5-carboxamide], the EC50 is at most 300 nM.
As for `CCN(CC)C(=O)c1cc(NC2CCOCC2)c2[nH]c(-c3ccccc3)cc2c1` [Example 2, N,N-diethyl-2-phenyl-7-((tetrahydro-2H-pyran-4-yl)amino)-1H-indol-5-carboxamide], the figure is at most 300 nM; as for `CCN(CC)C(=O)c1cc(NCc2ccccc2)c2[nH]c(-c3ccccc3)cc2c1` [Example 3, 7-(benzylamino)-N,N-diethyl-2-phenyl-1H-indole-5-carboxamide], at most 300 nM.
Consider `CCN(CC)C(=O)c1cc(NCc2ccncc2)c2[nH]c(-c3ccccc3)cc2c1` [Example 4, N,N-diethyl-2-phenyl-7-((pyridin-4-ylmethyl)amino)-1H-indole-5-carboxamide], for which the EC50 was at most 300 nM.
In the case of `O=C(NC1CC1)c1cc(NC2CCCC2)c2[nH]c(-c3ccccc3)cc2c1` [Example 5, 7-(cyclopentylamino)-N-cyclopropyl-2-phenyl-1H-indole-5-carboxamide] it was at most 300 nM.
In the case of `O=C(NC1CC1)c1cc(NC2CCOCC2)c2[nH]c(-c3ccccc3)cc2c1` [Example 6, N-cyclopropyl-2-phenyl-7-((tetrahydro-2H-pyran-4-yl)amino)-1H-indole-5-carboxamide] it was at most 300 nM; in that of `O=C(NC1CC1)c1cc(NCc2ccccc2)c2[nH]c(-c3ccccc3)cc2c1` [Example 7, 7-(benzylamino)-N-cyclopropyl-2-phenyl-1H-indole-5-carboxamide], at most 300 nM.
In the case of `O=C(Nc1ccccc1)c1cc(NC2CCOCC2)c2[nH]c(-c3ccccc3)cc2c1` [Example 9, N,2-diphenyl-7-((tetrahydro-2H-pyran-4-yl)amino)-1H-indole-5-carboxamide] it was 300 to 1000 nM; in that of `O=C(Nc1ccccc1)c1cc(NCc2ccccc2)c2[nH]c(-c3ccccc3)cc2c1` [Example 10, 7-(benzylamino)-N,2-diphenyl-1H-indole-5-carboxamide], 300 to 1000 nM; in that of `CCN(CC)C(=O)Cc1cc(NC2CCCC2)c2[nH]c(-c3ccccc3)cc2c1` [Example 11, 2-(7-(cyclopentylamino)-2-phenyl-1H-indol-5-yl)-N,N-diethylacetamide], 300 to 1000 nM.
For `CCN(CC)C(=O)Cc1cc(NC2CCOCC2)c2[nH]c(-c3ccccc3)cc2c1` [Example 12, N,N-diethyl-2-(2-phenyl-7-((tetrahydro-2H-pyran-4-yl)amino)-1H-indol-5-yl)acetamide], the EC50 is at most 300 nM.
Turning to `CCN(CC)C(=O)Cc1cc(NCc2ccncc2)c2[nH]c(-c3ccccc3)cc2c1` [Example 13, N,N-diethyl-2-(2-phenyl-7-((pyridin-4-ylmethyl)amino)-1H-indol-5-yl)acetamide], the EC50 lay within 300 to 1000 nM.
Take `CNC(=O)Cc1cc(NC2CCOCC2)c2[nH]c(-c3ccccc3)cc2c1` [Example 15, N-methyl-2-(2-phenyl-7-((tetrahydro-2H-pyran-4-yl)amino)-1H-indol-5-yl)acetamide]: the concentration for a half-maximal effect (EC50) was at most 300 nM.
Consider `CNC(=O)Cc1cc(NC2CCCC2)c2[nH]c(-c3ccccc3)cc2c1` [Example 16, 2-(7-(cyclopentylamino)-2-phenyl-1H-indol-5-yl)-N-methylacetamide], for which the EC50 is at most 300 nM.
For `O=C(Cc1cc(NCc2ccccc2)c2[nH]c(-c3ccccc3)cc2c1)NC1CC1` [Example 17, 2-(7-(benzylamino)-2-phenyl-1H-indol-5-yl)-N-cyclopropylacetamide], the EC50 was at most 300 nM.
As for `O=C(Cc1cc(NCc2ccccc2)c2[nH]c(-c3ccccc3)cc2c1)Nc1ccccc1` [Example 18, 2-(7-(benzylamino)-2-phenyl-1H-indol-5-yl)-N-phenylacetamide], the figure is 300 to 1000 nM; as for `O=C(Cc1cc(NC2CCOCC2)c2[nH]c(-c3ccccc3)cc2c1)Nc1ccccc1` [Example 19, N-phenyl-2-(2-phenyl-7-((tetrahydro-2H-pyran-4-yl)amino)-1H-indo1-5-yl)acetamide], at most 300 nM; as for `CCNS(=O)(=O)c1cc(NC2CCOCC2)c2[nH]c(-c3ccccc3)cc2c1` [Example 20, N-ethyl-2-phenyl-7-((tetrahydro-2H-pyran-4-yl)amino)-1H-indole-5-sulfonamide], at most 300 nM.
In the case of `CCNS(=O)(=O)c1cc(NCc2ccccc2)c2[nH]c(-c3ccccc3)cc2c1` [Example 21, 7-(benzylamino)-N-ethyl-2-phenyl-1H-indole-5-sulfonamide] it was over 1000 nM.
In the case of `N#CCc1cc(NC2CCOCC2)c2[nH]c(-c3ccccc3)cc2c1` [Example 23, 2-(2-phenyl-7-((tetrahydro-2H-pyran-4-yl)amino)-1H-indol-5-yl)acetonitrile] it was at most 300 nM; in that of `CC(C)(O)C#Cc1cc(NC2CCOCC2)c2[nH]c(-c3ccccc3)cc2c1` [Example 24, 2-methyl-4-(2-phenyl-7-((tetrahydro-2H-pyran-4-yl)amino)-1H-indol-5-yl)but-3-yn-2-ol], at most 300 nM; in that of `CC(C)(O)C#Cc1cc(NC2CCCC2)c2[nH]c(-c3ccccc3)cc2c1` [Example 25, 4-(7-(cyclopentylamino)-2-phenyl-1H-indol-5-yl)-2-methylbut-3-yn-2-ol], at most 300 nM.
As for `OCCOCc1cc(NC2CCCC2)c2[nH]c(-c3ccccc3)cc2c1` [Example 26, 2-((7-(cyclopentylamino)-2-phenyl-1H-indol-5-yl)methoxy)ethan-1-ol], the EC50 is at most 300 nM.
In the case of `OCCOCCCc1cc(NC2CCOCC2)c2[nH]c(-c3ccccc3)cc2c1` [Example 28, 2-(3-(2-phenyl-7-((tetrahydro-2H-pyran-4-yl)amino)-1H-indol-5-yl)propoxy)ethan-1-ol] it was at most 300 nM; in that of `CC(C)(O)COCc1cc(NC2CCOCC2)c2[nH]c(-c3ccccc3)cc2c1` [Example 30, 2-methyl-1-((2-phenyl-7-((tetrahydro-2H-pyran-4-yl)amino)-1H-indol-5-yl)methoxy)propan-2-ol], at most 300 nM; in that of `CC(C)(O)COCCOCc1cc(NC2CCOCC2)c2[nH]c(-c3ccccc3)cc2c1` [Example 31, 2-methyl-1-(2-((2-phenyl-7-((tetrahydro-2H-pyran-4-yl)amino)-1H-indol-5-yl)methoxy)ethoxy)propan-2-ol], at most 300 nM.
In the case of `CCC(O)(CC)COCCOCc1cc(NC2CCOCC2)c2[nH]c(-c3ccccc3)cc2c1` [Example 32, 3-((2-((2-phenyl-7-((tetrahydro-2H-pyran-4-yl)amino)-1H-indol-5-yl)methoxy)ethoxy)methyl)pentan-3-ol] it was at most 300 nM.
`OCCOCCc1cc(NC2CCOCC2)c2[nH]c(-c3ccccc3)cc2c1` [Example 33, 2-(2-(2-phenyl-7-((tetrahydro-2H-pyran-4-yl)amino)-1H-indol-5-yl)ethoxy)ethan-1-ol]: the 50% effective concentration (EC50) was at most 300 nM.
As to `OCCCOCCOCc1cc(NC2CCOCC2)c2[nH]c(-c3ccccc3)cc2c1` [Example 34, 3-(2-((2-phenyl-7-((tetrahydro-2H-pyran-4-yl)amino)-1H-indol-5-yl)methoxy)ethoxy)propan-1-ol], the EC50 was at most 300 nM.
For the compound `OC1CCC(OCc2cc(NC3CCOCC3)c3[nH]c(-c4ccccc4)cc3c2)CC1` (stereo not drawn) [Example 35, 4-((2-phenyl-7-((tetrahydro-2H-pyran-4-yl)amino)-1H-indol-5-yl)methoxy)cyclohexan-1-ol], the EC50 was at most 300 nM.

For orientation: EC50 means the midpoint of the concentration-response curve.
